# According to patent US9629822B2, “Flavonoid based antiviral targets” (UNIVERSITY OF CENTRAL FLORIDA RESEARCH FOUNDATION, INC., priority 2012, dated 2017):
# Entries after “also recorded” stand apart in the source; their conditions may differ. Like-named read-outs stand apart in the source and are kept apart here.
# Tests used:
# CHO cells = experiment: CHO cell toxicity, MTS assay, 48 h; type: cell-based, Chinese hamster; conditions: 37° C., MTS reagent; for IC50: Cricetulus griseus, CHO, read-out: CHO 48 h IC50 value
# Experimental: In each case, the chalcone system 8 was more toxic than the corresponding ring-closed system, 9.
# The CHO assay was conducted to assess the general toxicity of each flavonoid drug. Briefly, cell growth was assayed in sterile 96-well microtiter plates (Costar 3599, Corning, N.Y., USA) in the presence of each drug. Experiments were conducted in triplicate. CHO cells were plated at 10,000 cells/mL. Drug solutions were prepared in 100% DMSO and dosed so that the final DMSO concentration was <1%. For example, 1 μL of drug solution was added to the CHO cells plated in each well in 100 μL of media. Drug additions occurred after an initial overnight incubation of CHO cells in each well. After drug was added, the cells were incubated in 5% CO2 for 48 h at 37° C. The MTS reagent (Promega Cell Titer 96 Aqueous non-radioactive cell proliferation reagent) was added (20 μL) and the CHO cells were incubated for an additional 4h and then absorbance at 490 nm was measured on a BioTek Synergy MX plate reader. […] IC50 values were determined from the corresponding plot of relative absorbance at 490 nm vs drug concentration.
# HIV-1 BaL = experiment: Anti-HIV assay (luciferase, HIV-1 BaL infection); type: cell-based
# Experimental: Assays were performed below in accordance with the procedures set forth in The Journal of Immunology, 2006, 176, pp. 6900-905; AIDS Research and Human Retroviruses, 2004, 20:11, pp. 1157-1665.^32,33 Cells were treated with 2 ng/mL p24 of HIV-1 BaL administered; MOI approx 0.02 (see refs 32, 33). Cells were treated with 2 ng/mL p24 of HIV-1 BaL administered; MOI approx 0.02 (see refs 32, 33).
# [1] = TZMbI assay for cell safety (cell viability and growth, CytoTox Glo); conditions: human, TZMbI cells, read-out: % decrease in viability compared to 0.1% DMSO vehicle based on viable cell luminescence
# Experimental: Assays were performed below in accordance with the procedures set forth in The Journal of Immunology, 2006, 176, pp. 6900-905; AIDS Research and Human Retroviruses, 2004, 20:11, pp. 1157-1665.^32,33 TZMbI assays for cell safety were performed to identify potential anti-viral compounds. TZMbI assays for cell safety were performed to identify potential anti-viral compounds per the methods.
# [2] = test system: mock transfected 293T HEK cells; experiment: PathDetect Elk1 luminescence in mock transfected (empty pcDNA3 vector) 293T HEK cells, off-target effect; type: cell-based, human; conditions: for activation at 10 µM: Homo sapiens, read-out: Effect(%) on mock cells with each drug at 10 μM
# Experimental: As a control, the empty pcDNA3 plasmid vector and the components of PathDetect system were also used for mock transfection of 293T HEK cells. Controls containing 1% DMSO were run in parallel. The relative luminescence results found with mock transfected 293T HEK cells treated with 10 μM drug and the untreated 1% DMSO control were compared via the following Equation 1. % Effect on mock cells=(100%×(mock cell luminescence/DMSO control luminescence))−100% Equation (1)
# This equation was derived in order to assess the net effect each compound had on non-US28 containing HEK cells transfected via the same protocol. These control experiments were critical as they provided a method to address off target effects such as compound toxicity, which could give rise to false positives in the PathDetect assay.
# Compounds, which had no off-target effects, gave nearly identical luminescence values in both the mock cells and the 1% DMSO control (i.e., a mock cell luminescence/DMSO control luminescence ratio of 1) and a net effect of 0% via Equation 1 (e.g., 9j: 0% in Table 1). In contrast, compounds that were stimulatory to the treated HEK cells gave higher mock cell luminescence than the DMSO control, a ratio >1, and a net positive value in Equation 1 for the % effect on mock cells (e.g., 8f: 290%). On the other hand, compounds that were intrinsically toxic gave lower luminescence in the treated mock cells than the DMSO control, a ratio below 1, and a net negative value for the % effect on mock cells (e.g., 8d: ˜42%).
# (§1) The efficacy of each compound on the US28 receptor was investigated in luciferase based reporter gene assay PathDetect trans Elk1 (Agilent, Stratagene)^23 as described previously.^13 Briefly, the human embryonic kidney (HEK) 293T cells were transiently-transfected with 0.1 μg Elk1, 5 μg Luc, and 5 μg of US28 vector or empty pcDNA3 vector (mock cells). Five hours after transfection, the cells were washed with DMEM containing 1% FBS, harvested, seeded in a white half-area 96-well plate (20,000 cells/well) and incubated with the indicated concentrations of test compounds. The incubation buffer consisted of DMEM, 1% FBS, 2 mM L-glutamine, 1% penicillin-streptomycin and 1% DMSO. The cells were incubated at 37° C. in the humid atmosphere with 5% CO2 for an additional 20-24 hours. The luciferase substrate BrightGlo (Promega) was used according to the manufacturer's instruction. The luminescence intensity was acquired using microplate reader Victor3V (Perkin-Elmer). The basal luminescence of mock transfected cells was approximately 500 RLU and the basal luminescence of US28-transfected cells was 4-5-fold higher (2000-2500 RLU). As the inhibitors gave differential responses in terms of their ability to reduce US 28 mediated signaling, their relative EC50 values were determined by dosing the US-28 transfected HEK cells with increasing concentrations of each compound. In this case, the EC50 value is the concentration of the compound needed to provoke a response halfway between the compound's maximal response (change in luminescence) and the no-compound control in the same US-28 transfected cell line. A plot of relative luminescence versus log of the compound concentration provided a dose-response curve from which the % efficacy was derived via non-linear regression methods using the algorithms in PRISM 5.0 (GraphPad Software, San Diego, Calif.).
# US28 receptor = target: T1, US28 receptor (Human cytomegalovirus, UniProt P69332); experiment: PathDetect trans Elk1 luciferase reporter gene assay in US28-transfected 293T HEK cells; type: cell-based, Human Cytomegalovirus (HCMV); conditions: for type of activity on the US28 receptor (agonist / inverse agonist / none), in words: Elk1 reporter, US28-transfected HEK cells; for Efficacy(%): maximum intrinsic activity from dose-response curve; for Efficacy(%) / Emax: negative = inverse agonism; for Emax: read-out: Efficacy(%), maximum intrinsic activity from dose-response curve
# T1 construct: expressed in transfected cells; host or cells: HEK 293T cells, transiently transfected
# Text: Having generated a homologous series of chalcones and flavones, their ability to interact with the US28 receptor in human embryonic kidney (HEK) cells was investigated using an Elk-1 gene reporter assay (FIG. 2). HEK cells were transfected with either an empty vector (i.e., mock cells) or with a vector carrying US 28. These matched HEK cells provided a means to evaluate off-target effects as well as innate drug toxicity. As many of the flavonoid drugs were not water-soluble, all drug stock solutions were made in 100% dimethylsulfoxide (DMSO). The final DMSO concentration for each cell-based experiment, however, was 1% DMSO. To account for the presence of DMSO, 1% DMSO controls were run in parallel. […] values of the homologous series were also determined in Chinese hamster ovary (CHO) cells in order to assess the relative toxicities of each member of the series in a different cell line (see Table 1).
# Interaction with the US28 receptor was measured by a decrease in luminescence using a firefly (Photinus pyralis) luciferase-based PathDetect Elk1 gene reporter assay (FIG. 2).^23,24 This assay assessed the modulation of US28-mediated activation of mitogen-activated protein kinase (MAPK) signaling pathways (results are shown in Table 1). […] Such compounds which reduce MAPK signaling will have direct utility in the treatment of proliferative disorders including but not limited cancer.
# After transfection the US28 is expressed and activates MAPK. The MAPK phosphorylates the activator domain of the GAL4dbd/Elk1 fusion protein, and causes its dimerization. The dimer then binds to the GAL4 UAS region of the reporter gene and allows for luciferase transcription. The luciferase mRNA is then translated and the luciferase protein is detected via luminescence by the use of the Bright-Glo reagent.
# as §1
# [3] = 10 μM, Experiment 1B, 2 ng/mL p24 HIV-1 BaL
# [4] = Human immunodeficiency virus 1, BAL, 10 μM, Experiment 1B, 2 ng/mL p24 HIV-1 BaL
# [5] = 10 μM vs 1% DMSO control, Equation 1
# [6] = pEC50 ± SEM, 293T HEK cells transiently expressing US28, Elk1 reporter
# [7] = EC50 (μM), 293T HEK cells transiently expressing US28, Elk1 reporter, NE = no effect when tested at 10 μM of compound
# T1 sequence (P69332 whole entry): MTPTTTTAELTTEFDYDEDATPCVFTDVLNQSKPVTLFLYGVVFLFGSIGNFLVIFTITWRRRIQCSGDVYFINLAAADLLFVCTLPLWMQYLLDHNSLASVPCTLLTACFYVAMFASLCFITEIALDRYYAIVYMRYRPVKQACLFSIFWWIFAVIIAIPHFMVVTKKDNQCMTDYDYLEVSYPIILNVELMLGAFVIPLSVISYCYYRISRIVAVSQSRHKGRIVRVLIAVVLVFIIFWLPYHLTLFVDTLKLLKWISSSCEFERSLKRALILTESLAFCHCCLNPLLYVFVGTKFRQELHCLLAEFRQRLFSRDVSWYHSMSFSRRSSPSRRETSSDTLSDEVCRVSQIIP
smiles,measurement,setting,value
"COc1ccccc1/C=C/C(=O)c1ccccc1O [Compound 8a, (E)-1-(2-Hydroxyphenyl)-3-(2-methoxyphenyl)prop-2-en-1-one]",IC50,CHO cells,25.5 ± 2.7 µM
same,RLU (relative luciferase units),HIV-1 BaL; [3],1218.5 RLU
same,inhibition at 10 µM,HIV-1 BaL; [4],-28.8%
same,cytotoxicity at 10 μM,[1]; Experiment 1A,18.7%
same,activation at 10 µM,[2]; [5],8%
same,"type of activity on the US28 receptor (agonist / inverse agonist / none), in words",US28 receptor,agonism; also recorded: agonist activity
same,Efficacy(%),US28 receptor,67%
same,EC50,US28 receptor; [6],1.45 µM
same,Emax,US28 receptor,67%
"COc1ccc(Br)cc1/C=C/C(=O)c1ccccc1O [Compound 8b, (E)-3-(5-Bromo-2-methoxyphenyl)-1-(2-hydroxyphenyl)prop-2-en-1-one]",IC50,CHO cells,8.7 ± 0.3 µM
same,RLU (relative luciferase units),HIV-1 BaL; [3],202.3 RLU
same,inhibition at 10 µM,HIV-1 BaL; [4],78.6%
same,cytotoxicity at 10 μM,[1]; Experiment 1A,64.2%
same,EC50,US28 receptor; [7],7.8 µM
same,Efficacy(%),US28 receptor,~44%
same,Emax,US28 receptor,~44%
"CCOc1ccc(Br)cc1/C=C/C(=O)c1ccccc1O [Compound 8c, (E)-3-(5-bromo-2-ethoxyphenyl)-1-(2-hydroxyphenyl)prop-2-en-1-one]",IC50,CHO cells,7.2 ± 0.5 µM
same,RLU (relative luciferase units),HIV-1 BaL; [3],112.3 RLU
same,inhibition at 10 µM,HIV-1 BaL; [4],88.1%
same,cytotoxicity at 10 μM,[1]; Experiment 1A,53.3%
same,activation at 10 µM,[2]; [5],-3%
same,EC50,US28 receptor; [7],5 µM
same,Emax,US28 receptor,~88%
"COc1ccccc1/C=C/C(=O)c1c(O)cccc1OCc1ccccc1 [Compound 8k, (E)-1-(2-(Benzyloxy)-6-hydroxyphenyl)-3-(2-methoxyphenyl)prop-2-en-1-one]","toxicity at 10 μM in HEK cells, in words",[2]; 10 μM,very toxic
same,Effect(%) on mock cells with each drug at 10 μM,[2]; [5],Toxic
same,EC50 (μM),"US28 receptor; 293T HEK cells transiently expressing US28, Elk1 reporter, NE = no effect when tested at 10 μM of compound",Toxic
"COc1ccccc1-c1cc(=O)c2c(OCc3ccccc3)cccc2o1 [Compound 11a, 5-(Benzyloxy)-2-(2-methoxyphenyl)-4H-chromen-4-one]",IC50,CHO cells,17.5 ± 1.9 µM
same,EC50,US28 receptor; [7],7.3 µM
"COc1ccc(Br)cc1-c1cc(=O)c2c(OCc3ccccc3)cccc2o1 [Compound 11b, 5-(Benzyloxy)-2-(5-bromo-2-methoxyphenyl)-4H-chromen-4-one]",CHO 48 h IC50 value (μM),CHO cells,high CHO IC50 value; also recorded: essentially non-toxic; also recorded: not toxic
same,IC50,CHO cells,96.6 µM
same,RLU (relative luciferase units),"HIV-1 BaL; 5 μM, Experiment 2B",24.27 RLU
same,RLU (relative luciferase units),HIV-1 BaL; [3],781.6 RLU
same,RLU (relative luciferase units),"HIV-1 BaL; 10 μM, Experiment 2B",34.09 RLU
same,RLU (relative luciferase units),"HIV-1 BaL; 20 μM, Experiment 2B",40.47 RLU
same,RLU (relative luciferase units),"HIV-1 BaL; 40 μM, Experiment 2B",49.22 RLU
same,RLU (relative luciferase units),"HIV-1 BaL; 80 μM, Experiment 2B",62.68 RLU
same,inhibition at 5 µM,"HIV-1 BaL; Human immunodeficiency virus 1, BAL, 5 μM, Experiment 2B",-6.17%
same,inhibition at 10 µM,HIV-1 BaL; [4],16.5%
same,inhibition at 10 µM,"HIV-1 BaL; Human immunodeficiency virus 1, BAL, 10 μM, Experiment 2B",-15.1%
same,inhibition at 20 µM,"HIV-1 BaL; Human immunodeficiency virus 1, BAL, 20 μM, Experiment 2B",-18.1%
same,inhibition at 40 µM,"HIV-1 BaL; Human immunodeficiency virus 1, BAL, 40 μM, Experiment 2B",-29.2%
same,inhibition at 80 µM,"HIV-1 BaL; Human immunodeficiency virus 1, BAL, 80 μM, Experiment 2B",-1.51%
same,cytotoxicity at 5 μM,"[1]; 5 μM, Experiment 2A",-6.17%
same,cytotoxicity at 10 μM,[1]; Experiment 1A,6.4%
same,cytotoxicity at 10 μM,[1]; Experiment 2A,-5.05%
same,cytotoxicity at 20 μM,"[1]; 20 μM, Experiment 2A",-18.1%
same,cytotoxicity at 40 μM,"[1]; 40 μM, Experiment 2A",-29.2%
same,cytotoxicity at 80 μM,"[1]; 80 μM, Experiment 2A",-1.51%
same,"type of activity on the US28 receptor (agonist / inverse agonist / none), in words",US28 receptor,strong inverse agonism activity; also recorded: full inverse agonist
same,Efficacy(%),US28 receptor,−89%
same,EC50,US28 receptor; [6],3.47 µM
same,Emax,US28 receptor,-89%
"CC[C@H](C)[C@@H]1NC(=O)CNC(=O)[C@H](CCCCN)NC(=O)CNC(=O)[C@@H]2CSSC[C@H](NC1=O)C(=O)N[C@@H](CCCNC(=N)N)C(=O)N[C@H]1CSSC[C@H](NC(=O)[C@H](CCCNC(=N)N)NC(=O)[C@@H]3CSSC[C@H](NC(=O)[C@H]([C@@H](C)CC)NC1=O)C(=O)NCC(=O)N[C@@H](CCCNC(=N)N)C(=O)NCC(=O)N[C@@H]([C@@H](C)CC)C(=O)N3)C(=O)N[C@@H]([C@@H](C)CC)C(=O)N2 [RC-101, reference compound]",Mean % Inhibition of Infection,"HIV-1 BaL; 10 μM, Experiment 2B",99.38%
same,RLU (relative luciferase units),"HIV-1 BaL; 10 μM, Experiment 2B",1.67 RLU
same,cytotoxicity at 10 μM,[1]; Experiment 2A,-1.43%
